# pIC50: −log10 of the molar value. Where two headings read alike, the source gives them in different places.
# Columns and labels:
# [1] = test system: Hedgehog pathway activation (GLi-luciferase reporter) in Shh Light II reporter cells; test: Hedgehog pathway activation on Shh Light II reporter cells measured by luciferase activity; assay type: cell-based; conditions: Mus musculus, Shh Light II
# Procedure, shortened: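 Shh Light II reporter cells carrying a hedgehog-responsive GLi-luciferase reporter were stimulated either with 500 nM SAG, a direct Smoothened agonist, or with conditioned media containing human Sonic Hedgehog (hShh). Test compounds were evaluated for blocking this pathway activation, quantified by luciferase activity. Cell viability was monitored in parallel with the Celltiter-Blue® assay.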
# [2] = test system: Hedgehog pathway activation on 10T1/2/Smo#3 cells (C3H10T1/2 cells transfected with human Smoothened receptor); test: Hedgehog pathway activation on 10T1/2/Smo#3 cells measured by ALP activity; assay type: cell-based; conditions: Mus musculus, C3H 10T1/2, 10T1/2/Smo#3 cells
# Procedure, shortened: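 C3H10T1/2 cells stably expressing human Smoothened were activated with hShh-conditioned medium (10-20%) or 500 nM SAG, with test compounds present. Pathway block read as inhibited ALP activity (4-methylumbelliferyl phosphate fluorescence); viability checked by CellTiter-Blue. IC50 values reported.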
# [3] = hShh activation, read-out: Shh (IC50, inhibition of Hedgehog pathway activation)
# [4] = measured by ALP activity, read-out: ALP (IC50, inhibition of Hedgehog pathway activation)
# [5] = SAG activation (500 nM SAG), read-out: Shh Light II luciferase activity (SAG activation)
# [6] = hShh activation, read-out: Shh Light II luciferase activity (hShh activation)
# [7] = hShh activation, ALP activity, read-out: 10T1/2/Smo#3 ALP activity (hShh Activation)
Structure (SMILES),"pIC50 [1, 3]","pIC50 [2, 4]","pIC50 [1, 5]","pIC50 [1, 6]","pIC50 [2, 7]"
"COc1ccc2nc(-c3ccc(C)c(NC(=O)c4ccccc4)c3)cn2n1 [Example 97, N-(5-(6-methoxyimidazo[1,2-b]pyridazin-2-yl)-2-methylphenyl)benzamide]",6.17,5.95,–,–,–
"CCOc1ccc2nc(-c3ccc(C(F)(F)F)c(S(=O)(=O)NCc4ccccc4)c3)cn2n1 [Example 215, N-benzyl-5-(6-ethoxyimidazo[1,2-b]pyridazin-2-yl)-2-(trifluoromethyl)benzenesulfonamide]",< 5.00,5.51,–,–,–
"Cc1c(-c2ccccc2)nc2ccc(N3CCN(C(=O)CCc4ccccc4)CC3)nn12 [Example 156, 1-(4-(3-methyl-2-phenylimidazo[1,2-b]pyridazin-6-yl)piperazin-1-yl)-3-phenylpropan-1-one]",5.46,5.05,–,–,–
"Cc1ccc2nc(-c3ccc(C(F)(F)F)c(NC(=O)C(C)(C)C)c3)cn2n1 [Example 142, N-(5-(6-methylimidazo[1,2-b]pyridazin-2-yl)-2-(trifluoromethyl)phenyl)pivalamide]",5.85,6.44,–,–,–
"CC(C)(C)C(=O)Nc1cc(-c2cn3nc(N4CCN(S(C)(=O)=O)CC4)ccc3n2)ccc1C(F)(F)F [Example 234, N-(5-(6-(4-(methylsulfonyl)piperazin-1-yl)imidazo[1,2-b]pyridazin-2-yl)-2-(trifluoromethyl)phenyl)pivalamide]",6.26,6.64,–,–,–
"Cc1ccc(-c2nc3ccc(N4CCC(O)CC4)nn3c2C)cc1NC(=O)C(C)(C)C [Example 313, N-(5-(6-(4-hydroxypiperidin-1-yl)-3-methylimidazo[1,2-b]pyridazin-2-yl)-2-methylphenyl)pivalamide]",6.08,6.20,5.52 to 6.52,5.52 to 6.52,5.52 to 6.52
"NS(=O)(=O)c1cc(-c2cn3nc(-c4cccnc4C(F)(F)F)ccc3n2)ccc1Cl [Example 697, 2-chloro-5-(6-(2-(trifluoromethyl)pyridin-3-yl)imidazo[1,2-b]pyridazin-2-yl)benzenesulfonamide]",< 5.00,< 5.00,–,–,–
"CC(C)(C)C(=O)Nc1cc(-c2cn3nc(-c4ccc(F)nc4)ccc3n2)ccc1C(F)(F)F [Example 174, N-(5-(6-(6-fluoropyridin-3-yl)imidazo[1,2-b]pyridazin-2-yl)-2-(trifluoromethyl)phenyl)pivalamide]",6.16,6.67,–,–,–
"COc1ccc2nc(-c3ccc(OC(F)(F)F)c(NC(=O)C(C)(C)C)c3)cn2n1 [Example 247, N-(5-(6-methoxyimidazo[1,2-b]pyridazin-2-yl)-2-(trifluoromethoxy)phenyl)pivalamide]",–,5.73,> 6.52,> 6.52,> 6.52
"COc1ncccc1-c1ccc2nc(-c3ccc(C(F)(F)F)c(NC(=O)C(C)(C)C)c3)cn2n1 [Example 175, N-(5-(6-(2-methoxypyridin-3-yl)imidazo[1,2-b]pyridazin-2-yl)-2-(trifluoromethyl)phenyl)pivalamide]",6.10,6.29,–,–,–
"Cc1cc(Cl)c(-c2cn3nc(Cl)ccc3n2)cc1NC(=O)C(C)(C)C [Example 131, N-(4-chloro-5-(6-chloroimidazo[1,2-b]pyridazin-2-yl)-2-methylphenyl)pivalamide]",5.84,5.08,–,–,–
"CC(C)(C)C(=O)Nc1cc(-c2cn3nc(Cc4ccccc4)ccc3n2)ccc1C(F)(F)F [Example 231, N-(5-(6-benzylimidazo[1,2-b]pyridazin-2-yl)-2-(trifluoromethyl)phenyl)pivalamide]",6.04,–,4.52 to 5.52,5.52 to 6.52,5.52 to 6.52
"CC(C)(C)NS(=O)(=O)c1cc(-c2cn3nc(-c4cccnc4C(F)(F)F)ccc3n2)ccc1Cl [Example 699, N-tert-butyl-2-chloro-5-(6-(2-(trifluoromethyl)pyridin-3-yl)imidazo[1,2-b]pyridazin-2-yl)benzenesulfonamide]",5.64,< 5.00,–,–,–
"COc1ccc2nc(-c3cc(NC(=O)C(C)(C)C)ccc3Cl)cn2n1 [Example 115, N-(4-chloro-3-(6-methoxyimidazo[1,2-b]pyridazin-2-yl)phenyl)pivalamide]",5.54,5.55,–,–,–
"COc1ccc2nc(-c3ccc(C)c(NC(=O)c4ccc(F)cc4Cl)c3)cn2n1 [Example 98, 2-chloro-4-fluoro-N-(5-(6-methoxyimidazo[1,2-b]pyridazin-2-yl)-2-methylphenyl)benzamide]",5.87,5.69,–,–,–
"Cc1ccc(-c2cn3nc(-c4cscn4)ccc3n2)cc1NC(=O)C(C)(C)C [Example 445, N-(2-methyl-5-(6-(thiazol-4-yl)imidazo[1,2-b]pyridazin-2-yl)phenyl)pivalamide]",6.10,6.24,–,–,–

# The remaining compounds from weak to strong by pIC50 [1, 3], led by results:
"pIC50 [1, 3]","pIC50 [2, 4]","pIC50 [1, 5]","pIC50 [1, 6]","pIC50 [2, 7]",Structure (SMILES)
6.33,6.26,–,–,–,"Cc1c(-c2ccccc2)nc2ccc(N3CCN(Cc4ccc(F)cc4F)CC3)nn12 [Example 164, 6-(4-(2,4-difluorobenzyl)piperazin-1-yl)-3-methyl-2-phenylimidazo[1,2-b]pyridazine]"
6.40,6.13,–,–,–,COC(=O)CCCCCCC(=O)Nc1ccc(-c2ccc3nc(-c4ccc(C)c(NC(=O)C(C)(C)C)c4)cn3n2)cc1 [compound 556]
6.55,6.89,–,–,–,"Cc1ccc(-c2cn3nc(-c4cc(Cl)cnc4F)ccc3n2)cc1NC(=O)C(C)(C)C [Example 279, N-(5-(6-(5-chloro-2-fluoropyridin-3-yl)imidazo[1,2-b]pyridazin-2-yl)-2-methylphenyl)pivalamide]"
6.84,7.64,–,–,–,"CC(C)(C)C(=O)Nc1cc(-c2cn3nc(N4CC[C@@H](O)C4)ccc3n2)ccc1Cl [Example 643, (R)—N-(2-chloro-5-(6-(3-hydroxypyrrolidin-1-yl)imidazo[1,2-b]pyridazin-2-yl)phenyl)pivalamide]"
6.94,6.94,–,–,–,"CC(C)(C)C(=O)Nc1cc(-c2cn3nc(N4CC[C@H](O)C4)ccc3n2)ccc1C(F)(F)F [Example 340, (S)-N-(5-(6-(3-hydroxypyrrolidin-1-yl)imidazo[1,2-b]pyridazin-2-yl)-2-(trifluoromethyl)phenyl)pivalamide]"
7.02,6.45,–,–,–,"O=C(Nc1cc(-c2cn3nc(-c4cccnc4C(F)(F)F)ccc3n2)ccc1F)N1CC(F)(F)C1 [Example 684, 3,3-difluoro-N-(2-fluoro-5-(6-(2-(trifluoromethyl)pyridin-3-yl)imidazo[1,2-b]pyridazin-2-yl)phenyl)azetidine-1-carboxamide]"
7.08,6.96,–,–,–,"Cc1ccc(-c2cn3nc(N4CCC(N(C)C)C4)ccc3n2)cc1NC(=O)C(C)(C)C (stereo not shown) [Example 361, N-(5-(6-(3-(dimethylamino)pyrrolidin-1-yl)imidazo[1,2-b]pyridazin-2-yl)-2-methylphenyl)pivalamide]"
7.18,7.40,–,–,–,Cc1ccc(-c2cn3nc(-c4cc(C(N)=NO)ccc4C(F)(F)F)ccc3n2)cc1NC(=O)C(C)(C)C [compound 601]
7.24,6.91,5.52 to 6.52,> 6.52,> 6.52,"CN[C@@H]1CCN(c2ccc3nc(-c4ccc(C)c(NC(=O)C(C)(C)C)c4)cn3n2)C1 [Example 391, (R)-N-(2-methyl-5-(6-(3-(methylamino)pyrrolidin-1-yl)imidazo[1,2-b]pyridazin-2-yl)phenyl)pivalamide]"
7.41,6.79,> 6.52,> 6.52,> 6.52,"CCCC(C)(C)C(=O)Nc1cc(-c2cn3nc(-c4cccnc4C(F)(F)F)ccc3n2)c(F)cc1Cl [Example 662, N-(2-chloro-4-fluoro-5-(6-(2-(trifluoromethyl)pyridin-3-yl)imidazo[1,2-b]pyridazin-2-yl)phenyl)-2,2-dimethylpentanamide]"
7.51,7.09,–,–,–,"Cc1ccc(-c2cn3nc(-c4ccc(F)cc4C(F)(F)F)ccc3n2)cc1NC(=O)C(C)(C)C [Example 396, N-(5-(6-(4-fluoro-2-(trifluoromethyl)phenyl)imidazo[1,2-b]pyridazin-2-yl)-2-methylphenyl)pivalamide]"
7.82,7.06,–,–,–,"Cc1ccc(-c2cn3nc(-c4cccc(F)c4C(F)(F)F)ccc3n2)cc1NC(=O)C(C)(C)C [Example 395, N-(5-(6-(3-fluoro-2-(trifluoromethyl)phenyl)imidazo[1,2-b]pyridazin-2-yl)-2-methylphenyl)pivalamide]"
7.89,8.22,> 6.52,> 6.52,> 6.52,"CC(C)(C)C(=O)Nc1cc(-c2cn3nc(-c4cccnc4C(F)(F)F)ccc3n2)ccc1Cl [Example 642, N-(2-chloro-5-(6-(2-(trifluoromethyl)pyridin-3-yl)imidazo[1,2-b]pyridazin-2-yl)phenyl)pivalamide]"
7.96,7.85,> 6.52,> 6.52,> 6.52,"CCc1ccc(-c2cn3nc(-c4cccnc4C(F)(F)F)ccc3n2)cc1NC(=O)C(C)(C)C [Example 352, N-(2-ethyl-5-(6-(2-(trifluoromethyl)pyridin-3-yl)imidazo[1,2-b]pyridazin-2-yl)phenyl)pivalamide]"

# From patent US8871767B2, “2-arylimidazo[1,2-B]pyridazine, 2-phenylimidazo[1,2-A]pyridine, and 2-phenylimidazo[1,2-A]pyrazine derivatives” (Hengrui (USA) Ltd., priority 2010, dated 2014)
